In US10131652B2, “Pyrimidinyloxy benzene derivatives as herbicides” (E. I. DU PONT DE NEMOURS AND COMPANY, priority 2014, dated 2018):
Read-outs that look alike come from different tables or passages of the source.

Tests used:
Assay in all cases: Test F pre-/postemergence plant response
Format in all cases: in vivo
[1] = tested on: Italian ryegrass (Lolium multiflorum); details: Lolium multiflorum, scale 0 to 100, read-out: Plant response rating, Ryegrass, Italian; for pest or weed control at 31 g/ha: 31 g ai/ha
Method in brief: (§1)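 Visual control ratings were scored 0 (no effect) to 100 (complete control) versus untreated plants after 14–21 greenhouse days. Compounds, formulated in a surfactant-containing non-phytotoxic solvent, were applied both to silt loam at planting (preemergence) and to 1- to 4-leaf plants 2–18 cm tall (postemergence).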

[2] = tested on: barnyardgrass (Echinochloa crus-galli); details: Echinochloa crus-galli, scale 0 to 100, read-out: Plant response rating, Barnyardgrass
Method in brief: as §1

[3] = tested on: dayflower (Virginia (VA) dayflower, Commelina virginica); details: Commelina virginica, scale 0 to 100, read-out: Plant response rating, Dayflower, VA
Method in brief: as §1

[4] = tested on: field bindweed (Convolvulus arvensis); details: Convolvulus arvensis, scale 0 to 100, read-out: Plant response rating, Field Bindweed
Method in brief: as §1

[5] = tested on: giant foxtail (Setaria faberii); details: Setaria faberi, pre-emergence, scale 0 to 100, read-out: Plant response rating, Foxtail, Giant
Method in brief: as §1

[6] = tested on: green foxtail (Setaria viridis); details: Setaria viridis, pre-emergence, Preemergence, scale 0 to 100, read-out: Plant response rating, Foxtail, Green
Method in brief: as §1

[7] = tested on: johnsongrass (Sorghum halepense); details: Sorghum halepense, pre-emergence, scale 0 to 100, read-out: Plant response rating, Johnsongrass
Method in brief: as §1

[8] = tested on: kochia (Kochia scoparia); details: Bassia scoparia, scale 0 to 100, read-out: Plant response rating, Kochia; for pest or weed control at 31 g/ha: 31 g ai/ha
Method in brief: as §1

[9] = tested on: lambsquarters (Chenopodium album); details: Chenopodium album, pre-emergence, Preemergence, scale 0 to 100, read-out: Plant response rating, Lambsquarters
Method in brief: as §1

[10] = tested on: large (Lg) crabgrass (Digitaria sanguinalis); details: Digitaria sanguinalis, pre-emergence, scale 0 to 100, read-out: Plant response rating, Crabgrass, Large
Method in brief: as §1

[11] = tested on: morningglory (Ipomoea coccinea); details: Ipomoea, pre-emergence, scale 0 to 100, read-out: Plant response rating, Morningglory
Method in brief: as §1

[12] = tested on: ragweed (common ragweed, Ambrosia elatior); details: Ambrosia artemisiifolia, scale 0 to 100, read-out: Plant response rating, Ragweed
Method in brief: as §1

[13] = tested on: soybean (Glycine max); details: Glycine max, scale 0 to 100, read-out: Plant response rating, Soybean
Method in brief: as §1

[14] = tested on: surinam grass (Brachiaria decumbens); details: Urochloa decumbens, pre-emergence, scale 0 to 100, read-out: Plant response rating, Surinam Grass
Method in brief: as §1

[15] = tested on: waterhemp (common waterhemp, Amaranthus rudis); details: Amaranthus tuberculatus, scale 0 to 100, read-out: Plant response rating, Waterhemp
Method in brief: as §1

[16] = tested on: wild poinsettia (Euphorbia heterophylla); details: Euphorbia heterophylla, scale 0 to 100, read-out: Plant response rating, Poinsettia, Wild
Method in brief: as §1

[17] = tested on: yellow nutsedge (Cyperus esculentus); details: Cyperus, pre-emergence, scale 0 to 100, read-out: Plant response rating, Nutsedge, Yellow
Method in brief: as §1

[18] = post-emergence, 62 g ai/ha, Postemergence
[19] = post-emergence, 31 g ai/ha Postemergence
[20] = post-emergence, 62 g ai/ha Postemergence
[21] = pre-emergence, 31 g ai/ha Preemergence
[22] = pre-emergence, 62 g ai/ha Preemergence

SMILES: Fc1cccc(Oc2ncc(Cl)cn2)c1-c1cc(C(F)F)on1 [Compound 55, 5-chloro-2-[2-[5-(difluoromethyl)-3-isoxazolyl]-3-fluorophenoxy]pyrimidine]
- pest or weed control at 31 g/ha ([1]; post-emergence, Postemergence): 0%
- pest or weed control at 62 g/ha [1, 18]: 10%
- pest or weed control at 31 g/ha ([1]; pre-emergence, Preemergence): 0%
- pest or weed control at 62 g/ha ([1]; pre-emergence, Preemergence): 30%
- pest or weed control at 31 g/ha [2, 19]: 50%
- pest or weed control at 62 g/ha [2, 20]: 35%
- pest or weed control at 31 g/ha [2, 21]: 10%
- pest or weed control at 62 g/ha [2, 22]: 85%
- pest or weed control at 31 g/ha [3, 19]: 70%
- pest or weed control at 31 g/ha [3, 21]: 60%
- pest or weed control at 62 g/ha [3, 22]: 40%
- pest or weed control at 31 g/ha [4, 19]: 25%
- pest or weed control at 62 g/ha [4, 20]: 70%
- pest or weed control at 31 g/ha [4, 21]: 0%
- pest or weed control at 62 g/ha [4, 22]: 10%
- pest or weed control at 31 g/ha ([5]; 31 g ai/ha Preemergence): 90%
- pest or weed control at 62 g/ha ([5]; 62 g ai/ha Preemergence): 98%
- pest or weed control at 31 g/ha ([6]; 31 g ai/ha): 20%
- pest or weed control at 62 g/ha [6]: 70%
- pest or weed control at 31 g/ha ([7]; 31 g ai/ha Preemergence): 20%
- pest or weed control at 62 g/ha ([7]; Preemergence): 90%
- pest or weed control at 31 g/ha ([8]; post-emergence, Postemergence): 95%
- pest or weed control at 62 g/ha [8, 18]: 98%
- pest or weed control at 31 g/ha ([8]; pre-emergence, Preemergence): 100%
- pest or weed control at 62 g/ha ([8]; pre-emergence, Preemergence): 100%
- pest or weed control at 31 g/ha ([9]; 31 g ai/ha): 100%
- pest or weed control at 62 g/ha [9]: 100%
- pest or weed control at 31 g/ha ([10]; 31 g ai/ha Preemergence): 98%
- pest or weed control at 62 g/ha ([10]; 62 g ai/ha Preemergence): 100%
- pest or weed control at 31 g/ha ([11]; 31 g ai/ha Preemergence): 30%
- pest or weed control at 62 g/ha ([11]; Preemergence): 98%
- pest or weed control at 31 g/ha [12, 19]: 55%
- pest or weed control at 62 g/ha [12, 20]: 55%
- pest or weed control at 31 g/ha [12, 21]: 40%
- pest or weed control at 62 g/ha ([12]; pre-emergence, Preemergence): 50%
- plant injury at 31 g/ha [13, 19]: 70%
- plant injury at 62 g/ha [13, 20]: 95%
- plant injury at 31 g/ha [13, 21]: 40%
- plant injury at 62 g/ha ([13]; pre-emergence, Preemergence): 50%
- pest or weed control at 31 g/ha ([14]; 31 g ai/ha Preemergence): 0%
- pest or weed control at 62 g/ha ([14]; Preemergence): 10%
- pest or weed control at 31 g/ha [15, 19]: 90%
- pest or weed control at 62 g/ha [15, 20]: 100%
- pest or weed control at 31 g/ha [15, 21]: 100%
- pest or weed control at 62 g/ha ([15]; pre-emergence, Preemergence): 100%
- pest or weed control at 31 g/ha [16, 19]: 35%
- pest or weed control at 62 g/ha [16, 20]: 45%
- pest or weed control at 31 g/ha [16, 21]: 0%
- pest or weed control at 62 g/ha ([16]; pre-emergence, Preemergence): 30%
- pest or weed control at 31 g/ha ([17]; 31 g ai/ha Preemergence): 0%
- pest or weed control at 62 g/ha ([17]; Preemergence): 0%
